# Measurements: patent US10919858B2, “Thioacetate compounds, compositions and methods of use” (ARDEA BIOSCIENCES, INC., priority 2010, dated 2021)
# Biological target: URAT1 (Homo sapiens (Human), UniProt Q96S37)
# Experiment: URAT1-model assay, 14C-uric acid transport in HEK293/URAT1-model cells
# Type: cell-based
# Details: 14C-uric acid 125 μM, 10 minutes at room temperature, read-out: URAT1 EC50 Activity Ranking
# Method: HEK293 human embryonic kidney cells (ATCC #CRL-1573) were propagated in EMEM tissue culture medium as described by ATCC in an atmosphere of 5% C02 and 95% air. Transfections of HEK293 cells with a model URAT1 construct was performed using L2000 transfection reagent (Invitrogen) as described by the manufacturer. After 24 h the transfected cells were split into 10 cm tissue culture plates and grown for 1 day after which the medium was replaced with fresh growth medium containing G418 (Gibco) at 0.5 mg/ml final concentration. Drug-resistant colonies were selected after approximately 8 days and then tested for ^14C-uric acid transport activity. The HEK293/URAT1-model cells are plated on Poly-D-Lysine Coated 96-well Plates at a density of 125,000 cells per well.
# Cells were grown overnight (20-26 hours) at 37° C. in an incubator. Plates were allowed to come to room temperature and media was washed out with one wash of 250 μl of Wash Buffer (125 mM Na Gluconate, 10 mM Hepes ph 7.3). Compound or vehicle is added in assay buffer with ^14C-uric acid for a final concentration of 125 μM Uric Acid with a specific activity of 54 mCi/mmol. Assay Buffer is 125 mM Sodium Gluconate, 4.8 mM Potassium Gluconate, 1.2 mM Potassium phosphate, monobasic, 1.2 mM magnesium sulfate, 1.3 mM Ca Gluconate, 5.6 mM Glucose, 25 mM HEPES, pH 7.3. Plates were incubated at room temperature for 10 minutes then washed 3 times with 50 μl Wash Buffer and 3 times with 250 μl Wash Buffer. Microscint 20 Scintillation Fluid was added and plates were incubated overnight at room temperature to equilibrate. Plates are then read on the TopCount Plate Reader and an EC50 value generated. (See Enomoto et al, Nature, 2002, 417, 447-451 and Anzai et al, J. Biol. Chem., 2004, 279, 45942-45950.)
# Sequence of URAT1 (Q96S37 whole entry, species assumed): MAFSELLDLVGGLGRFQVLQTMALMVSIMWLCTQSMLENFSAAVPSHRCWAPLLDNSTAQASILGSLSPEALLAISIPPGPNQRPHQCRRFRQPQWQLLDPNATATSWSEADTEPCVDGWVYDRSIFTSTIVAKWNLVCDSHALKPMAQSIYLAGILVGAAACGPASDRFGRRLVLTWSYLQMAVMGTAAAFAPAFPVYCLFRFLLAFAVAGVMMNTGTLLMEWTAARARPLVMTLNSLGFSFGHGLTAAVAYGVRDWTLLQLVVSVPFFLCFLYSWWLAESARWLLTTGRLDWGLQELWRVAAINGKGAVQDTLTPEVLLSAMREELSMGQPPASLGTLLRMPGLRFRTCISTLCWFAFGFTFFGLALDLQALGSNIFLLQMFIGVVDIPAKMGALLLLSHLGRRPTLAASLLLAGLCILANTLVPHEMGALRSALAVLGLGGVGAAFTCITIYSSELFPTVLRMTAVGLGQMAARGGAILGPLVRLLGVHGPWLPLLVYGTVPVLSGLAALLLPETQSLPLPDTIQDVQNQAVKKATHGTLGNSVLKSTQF
row,EC50,Structure (SMILES)
1,50 to 500 nM,CC(C)(Sc1ccncc1-c1ccc(C(F)(F)F)cc1)C(=O)O [Example 2N]
2,1 to 50 nM,CC(C)(Sc1ccncc1-c1ccc(Cl)cc1)C(=O)O [Example 2O]
3,1 to 50 nM,CC(C)(Sc1ccncc1-c1ccncc1)C(=O)O [Example 2PP]
4,1 to 50 nM,CC(C)(Sc1ccncc1-c1ccc(Cl)cc1)C(=O)O [Example 2P]
5,50 to 500 nM,CSc1ccc(-c2cnccc2SC(C)(C)C(=O)O)cc1 [Example 2Q]
6,50 to 500 nM,CC(C)(Sc1ccncc1-c1ccc(Cl)c(Cl)c1)C(=O)O [Example 2S]
7,50 to 500 nM,CC(C)(Sc1ccncc1-c1cccc(C#N)c1)C(=O)O [Example 2TT]
8,50 to 500 nM,COc1ccc(-c2cnccc2SC(C)(C)C(=O)O)cn1 [Example 2T]
9,1 to 50 nM,CC(C)(Sc1ccncc1-c1ccc(Br)cc1)C(=O)O [Example 2UU]
10,50 to 500 nM,CC(C)(Sc1ccncc1-c1cncc2ccccc12)C(=O)O [Example 2U]
11,50 to 500 nM,Cc1cc(C(N)=O)ccc1-c1cnccc1SC(C)(C)C(=O)O [Example 2WW]
12,50 to 500 nM,CC(C)(Sc1ccncc1-c1ccc(F)c(F)c1)C(=O)O [Example 2W]
13,50 to 500 nM,COc1ccc(-c2cnccc2SC(C)(C)C(=O)O)cc1 [Example 2XX]
14,1 to 50 nM,CC(C)(Sc1ccncc1-c1ccc(F)c2ccccc12)C(=O)O [Example 2X]
15,50 to 500 nM,COc1cc(-c2cnccc2SC(C)(C)C(=O)O)ccc1C#N [Example 2ZZ]
16,50 to 500 nM,N#Cc1ccc(-c2cccnc2SC2(C(=O)O)CCC2)c2ccccc12 [Example 4C]

# More lines, now with the values behind:
row,Structure (SMILES),EC50
1,"CC(C)(Sc1cccnc1-c1ccc(C#N)cc1)C(=O)O [Example 1A, 2-(2-(4-Cyanophenyl)pyridin-3-ylthio)-2-methylpropanoic acid]",50 to 500 nM
2,"CC(C)(Sc1ccncc1-c1ccc(C#N)cc1)C(=O)O [Example 2A, 2-(3-(4-Cyanophenyl)pyridin-4-ylthio)-2-methylpropanoic acid]",1 to 50 nM
3,CC(C)(Sc1ccncc1-c1ccc(O)cc1)C(=O)O [Example 2AAA],1 to 50 nM
4,CC(C)(Sc1ccncc1-c1ccc(Br)c2ccccc12)C(=O)O [Example 2AA],50 to 500 nM
5,CC(C)(Sc1ccncc1-c1ccc(C#N)c(F)c1)C(=O)O [Example 2BBB],50 to 500 nM
6,Cc1ccc(-c2cnccc2SC(C)(C)C(=O)O)c2ccccc12 [Example 2BB],50 to 500 nM
7,Cc1ccc(-c2cnccc2SC(C)(C)C(=O)O)cc1 [Example 2CCC],50 to 500 nM
8,CC(C)(Sc1ccncc1-c1ccc(S(N)(=O)=O)cc1)C(=O)O [Example 2CC],50 to 500 nM
9,CC(C)(Sc1ccncc1-c1ccc(C#N)c2ccccc12)C(=O)O [Example 2C],1 to 50 nM
10,CC(=O)Nc1ccc(-c2cnccc2SC(C)(C)C(=O)O)cc1 [Example 2DDD],50 to 500 nM
11,CC(C)(Sc1ccncc1-c1cccc2ccccc12)C(=O)O [Example 2DD],50 to 500 nM
12,CC(C)(Sc1ccncc1-c1ccc(S(=O)(=O)NC2CC2)cc1)C(=O)O [Example 2D],50 to 500 nM
13,CC(C)(Sc1ccncc1-c1ccc(S(C)(=O)=O)cc1)C(=O)O [Example 2EEE],50 to 500 nM
14,CC(C)(Sc1ccncc1-c1ccc(Cl)c(C(F)(F)F)c1)C(=O)O [Example 2EE],50 to 500 nM
15,CC(C)(Sc1ccncc1-c1ccc(C#N)c(Cl)c1)C(=O)O [Example 2FFF],1 to 50 nM
16,CC(C)(Sc1ccncc1-c1cnc2ccccc2c1)C(=O)O [Example 2F],50 to 500 nM

row,Structure (SMILES),EC50
1,CC(C)(Sc1ccncc1-c1ccc(S)cc1)C(=O)O [Example 2GGG],50 to 500 nM
2,CC(C)(Sc1ccncc1-c1ccc(F)cc1)C(=O)O [Example 2GG],50 to 500 nM
3,CC(C)(Sc1ccncc1-c1cccc2ncccc12)C(=O)O [Example 2H],50 to 500 nM
4,CC(C)(Sc1ccncc1-c1ccc(C#N)cc1F)C(=O)O [Example 2III],1 to 50 nM
5,CC(C)(Sc1ccncc1-c1ccnc2ccccc12)C(=O)O [Example 2II],50 to 500 nM
6,CC(C)(Sc1ccncc1-c1ccc(C(N)=O)cc1F)C(=O)O [Example 2JJJ],50 to 500 nM
7,CC(C)(Sc1ccncc1-c1ccc(CO)cc1)C(=O)O [Example 2JJ],1 to 50 nM
8,N#Cc1ccc(-c2cnccc2SC2(C(=O)O)CCC2)c2ccccc12 [Example 2J],1 to 50 nM
9,CC(C)(Sc1ccncc1-c1ccc(C(N)=O)cc1)C(=O)O [Example 2KK],50 to 500 nM
10,CCc1ccc(-c2cnccc2SC(C)(C)C(=O)O)cc1 [Example 2K],50 to 500 nM
11,COc1cncc(-c2cnccc2SC(C)(C)C(=O)O)c1 [Example 2MM],50 to 500 nM
12,Cc1cc(C#N)ccc1-c1cnccc1SC(C)(C)C(=O)O [Example 2NN],1 to 50 nM
13,"CC(C)(Sc1cnccc1-c1ccc(C#N)cc1)C(=O)O [Example 3A, 2-(4-(4-Cyanophenyl)pyridin-3-ylthio)-2-methylpropanoic acid]",500 to 10000 nM
14,"N#Cc1ccc(-c2nccnc2SCC(=O)O)c2ccccc12 [Example 5A, 2-(3-(4-Cyanonaphthalen-1-yl)pyrazin-2-ylthio)acetic acid]",500 to 10000 nM
15,"N#Cc1ccc(-c2cncnc2SCC(=O)O)c2ccccc12 [Example 6A, 2-(5-(4-Cyanonaphthalen-1-yl)pyrimidin-4-ylthio)acetic acid]",500 to 10000 nM
16,"N#Cc1ccc(-c2ncncc2SCC(=O)O)c2ccccc12 [Example 7A, 2-(4-(4-Cyanonaphthalen-1-yl)pyrimidin-5-ylthio)acetic acid]",500 to 10000 nM
